{"source": "patent US9518018B2", "about": "“3-alkoxy, thioalkyl and amino-4-amino-6-(substituted)picolinates and their use as herbicides” (Dow AgroSciences LLC, priority 2011, dated 2016)", "assay_in_all_cases": "In-water applied herbicidal activity in transplanted paddy rice", "assay_type_in_all_cases": "in vivo", "key": {"[1]": {"system": "CYPDI = Cyperus difformis L. (small-flower flatsedge)", "experimental": "(§1) Weed seeds or nutlets of the desired test plant species were planted in puddled soil (mud) prepared by mixing a non-sterilized mineral soil (28 percent silt, 18 percent clay, and 54 percent sand, with a pH of about 7.3 to 7.8 and an organic matter content of about 1.0 percent) and water at a ratio of 100 kilograms (kg) of soil to 19 liters (L) of water. The prepared mud was dispensed in 250 mL aliquots into 480 mL non-perforated plastic pots with a surface area of 86.59 cm^2 leaving a headspace of 2.5 to 3 cm in each pot. Rice seeds were planted in Sun Gro MetroMix 306 planting mixture, which typically has a pH of 6.0 to 6.8 and an organic matter content of about 30 percent, in plastic plug trays. Seedlings at the second or third leaf stage of growth were transplanted into 650 mL of mud contained in 960 mL non-perforated plastic pots with a surface area of 86.59 cm^2 four days prior to herbicide application. The paddy was created by filling the 2.5 to 3 cm headspace of the pots with water. When required to ensure good germination and healthy plants, a fungicide treatment and/or other chemical or physical treatment was applied. The plants were grown for 4-14 d in a greenhouse with an approximate 14-h photoperiod which was maintained at about 29° C. during the day and 26° C. during the night. Nutrients were added as Osmocote (17:6:10, Nitrogen:Phosphorus:Potassium (N:P:K)+minor nutrients) at 2 grams (g) per cup. Water was added on a regular basis to maintain the paddy flood, and supplemental lighting was provided with overhead metal halide 1000-Watt lamps as necessary. The plants were employed for testing when they reached the second or third true leaf stage. Treatments consisted of compounds 45, 34, and 66. For technical grade compounds, a weighed amount, determined by the highest rate to be tested, was placed in an individual 120 mL glass vial and was dissolved in 20 mL of acetone to obtain concentrated stock solutions. […] The concentrated stock solutions obtained were diluted with 20 mL of an aqueous mixture containing 2.5% Agri-dex crop oil concentrate (v/v). Applications were made by injecting an appropriate amount of the stock solution into the aqueous layer of the paddy. Control plants were treated in the same manner with the solvent blank. All treated plant material received the same concentration of acetone and crop oil concentrate. The treated plants and control plants were placed in a greenhouse as described above and water was added as needed to maintain a paddy flood. After approximately 3 weeks, the condition of the test plants, compared with that of the untreated plants, was determined visually and scored on a scale of 0 to 100 percent where 0 corresponds to no injury and 100 corresponds to complete kill. By applying the well-accepted probit analysis as described by J. Berkson in Journal of the […], 48, 565 (1953) and by D. Finney in “Probit Analysis” Cambridge University Press (1952) or by plotting the mean data and fitting a logarithmic curve to the portion of the data where there was a dose response using Microsoft Excel®, the above data can be used to calculate GR50 and GR90 values, which are defined as growth reduction factors that correspond to the effective dose of herbicide required to kill or control 50 percent or 90 percent, respectively, of a target plant."}, "[2]": {"system": "ORYSA = Oryza sativa ‘Wells’ (rice)", "experimental": "as §1"}, "[3]": {"system": "SCPJU = Scirpus juncoides ROXB. (Japanese bulrush)", "experimental": "as §1"}, "[4]": {"system": "ORYSA = Oryza sativa ‘M202’ (rice)", "experimental": "as §1"}, "[5]": {"system": "MOOVA = Monochoria vaginalis (BURM.f.) C.PRESL ex KUNTH (monochoria)", "experimental": "as §1"}, "[6]": {"system": "ECHCG = Echinochloa crus-galli (L.) P.BEAUV. (barnyardgrass)", "experimental": "as §1"}, "[7]": {"details": "Table 7, dose to kill or control 50 percent, 21 days after application"}, "[8]": {"details": "Table 7, dose to kill or control 90 percent, 21 days after application"}}}
{"smiles": "COc1c(C(=O)OCc2ccccc2)nc(-c2ccc(Cl)c(OC)c2F)c(F)c1N", "note": "[Compound 66, benzyl 4-amino-6-(4-chloro-2-fluoro-3-methoxyphenyl)-5-fluoro-3-methoxypicolinate]", "values": [{"measurement": "Mean Visual Injury (%)-21 Days After Application CYPDI", "setting": "[1]; Table 7, 2.19 g ae/ha", "result": 0, "unit": "%"}, {"measurement": "Mean Visual Injury (%)-21 Days After Application CYPDI", "setting": "[1]; Table 7, 4.38 g ae/ha", "result": 48, "unit": "%"}, {"measurement": "Mean Visual Injury (%)-21 Days After Application CYPDI", "setting": "[1]; Table 7, 8.75 g ae/ha", "result": 94, "unit": "%"}, {"measurement": "Mean Visual Injury (%)-21 Days After Application CYPDI", "setting": "[1]; Table 7, 17.5 g ae/ha", "result": 100, "unit": "%"}, {"measurement": "Mean Visual Injury (%)-21 Days After Application CYPDI", "setting": "[1]; Table 7, 35 g ae/ha", "result": 100, "unit": "%"}, {"measurement": "Mean Visual Injury (%)-21 Days After Application CYPDI", "setting": "[1]; Table 7, 70 g ae/ha", "result": 100, "unit": "%"}, {"measurement": "Mean Visual Injury (%)-21 Days After Application CYPDI", "setting": "[1]; Table 7, 140 g ae/ha", "result": 100, "unit": "%"}, {"measurement": "GR50 CYPDI", "setting": "[1]; [7]", "result": 4.5, "unit": "g ae/ha"}, {"measurement": "GR90 CYPDI", "setting": "[1]; [8]", "result": 8.2, "unit": "g ae/ha"}, {"measurement": "Mean Visual Injury (%)-21 Days After Application ORYSA ‘Wells’", "setting": "[2]; Table 7, 8.75 g ae/ha", "result": 0, "unit": "%"}, {"measurement": "Mean Visual Injury (%)-21 Days After Application ORYSA ‘Wells’", "setting": "[2]; Table 7, 17.5 g ae/ha", "result": 0, "unit": "%"}, {"measurement": "Mean Visual Injury (%)-21 Days After Application ORYSA ‘Wells’", "setting": "[2]; Table 7, 35 g ae/ha", "result": 0, "unit": "%"}, {"measurement": "Mean Visual Injury (%)-21 Days After Application ORYSA ‘Wells’", "setting": "[2]; Table 7, 70 g ae/ha", "result": 0, "unit": "%"}, {"measurement": "Mean Visual Injury (%)-21 Days After Application ORYSA ‘Wells’", "setting": "[2]; Table 7, 140 g ae/ha", "result": 5, "unit": "%"}, {"measurement": "GR50 ORYSA ‘Wells’", "setting": "[2]; [7]", "result": ">140", "unit": "g ae/ha"}, {"measurement": "GR90 ORYSA ‘Wells’", "setting": "[2]; [8]", "result": ">140", "unit": "g ae/ha"}, {"measurement": "Mean Visual Injury (%)-21 Days After Application SCPJU", "setting": "[3]; Table 7, 2.19 g ae/ha", "result": 35, "unit": "%"}, {"measurement": "Mean Visual Injury (%)-21 Days After Application SCPJU", "setting": "[3]; Table 7, 4.38 g ae/ha", "result": 78, "unit": "%"}, {"measurement": "Mean Visual Injury (%)-21 Days After Application SCPJU", "setting": "[3]; Table 7, 8.75 g ae/ha", "result": 94, "unit": "%"}, {"measurement": "Mean Visual Injury (%)-21 Days After Application SCPJU", "setting": "[3]; Table 7, 17.5 g ae/ha", "result": 98, "unit": "%"}, {"measurement": "Mean Visual Injury (%)-21 Days After Application SCPJU", "setting": "[3]; Table 7, 35 g ae/ha", "result": 100, "unit": "%"}, {"measurement": "Mean Visual Injury (%)-21 Days After Application SCPJU", "setting": "[3]; Table 7, 70 g ae/ha", "result": 100, "unit": "%"}, {"measurement": "Mean Visual Injury (%)-21 Days After Application SCPJU", "setting": "[3]; Table 7, 140 g ae/ha", "result": 100, "unit": "%"}, {"measurement": "GR50 SCPJU", "setting": "[3]; [7]", "result": 2.8, "unit": "g ae/ha"}, {"measurement": "GR90 SCPJU", "setting": "[3]; [8]", "result": 7.1, "unit": "g ae/ha"}, {"measurement": "Mean Visual Injury (%)-21 Days After Application ORYSA ‘M202’", "setting": "[4]; Table 7, 2.19 g ae/ha", "result": 0, "unit": "%"}, {"measurement": "Mean Visual Injury (%)-21 Days After Application ORYSA ‘M202’", "setting": "[4]; Table 7, 4.38 g ae/ha", "result": 0, "unit": "%"}, {"measurement": "Mean Visual Injury (%)-21 Days After Application ORYSA ‘M202’", "setting": "[4]; Table 7, 8.75 g ae/ha", "result": 0, "unit": "%"}, {"measurement": "Mean Visual Injury (%)-21 Days After Application ORYSA ‘M202’", "setting": "[4]; Table 7, 17.5 g ae/ha", "result": 0, "unit": "%"}, {"measurement": "Mean Visual Injury (%)-21 Days After Application ORYSA ‘M202’", "setting": "[4]; Table 7, 35 g ae/ha", "result": 0, "unit": "%"}, {"measurement": "Mean Visual Injury (%)-21 Days After Application ORYSA ‘M202’", "setting": "[4]; Table 7, 70 g ae/ha", "result": 0, "unit": "%"}, {"measurement": "Mean Visual Injury (%)-21 Days After Application ORYSA ‘M202’", "setting": "[4]; Table 7, 140 g ae/ha", "result": 17, "unit": "%"}, {"measurement": "GR50 ORYSA ‘M202’", "setting": "[4]; [7]", "result": ">140", "unit": "g ae/ha"}, {"measurement": "GR90 ORYSA ‘M202’", "setting": "[4]; [8]", "result": ">140", "unit": "g ae/ha"}, {"measurement": "Mean Visual Injury (%)-21 Days After Application MOOVA", "setting": "[5]; Table 7, 2.19 g ae/ha", "result": 0, "unit": "%"}, {"measurement": "Mean Visual Injury (%)-21 Days After Application MOOVA", "setting": "[5]; Table 7, 4.38 g ae/ha", "result": 100, "unit": "%"}, {"measurement": "Mean Visual Injury (%)-21 Days After Application MOOVA", "setting": "[5]; Table 7, 8.75 g ae/ha", "result": 100, "unit": "%"}, {"measurement": "Mean Visual Injury (%)-21 Days After Application MOOVA", "setting": "[5]; Table 7, 17.5 g ae/ha", "result": 100, "unit": "%"}, {"measurement": "Mean Visual Injury (%)-21 Days After Application MOOVA", "setting": "[5]; Table 7, 35 g ae/ha", "result": 100, "unit": "%"}, {"measurement": "Mean Visual Injury (%)-21 Days After Application MOOVA", "setting": "[5]; Table 7, 70 g ae/ha", "result": 100, "unit": "%"}, {"measurement": "Mean Visual Injury (%)-21 Days After Application MOOVA", "setting": "[5]; Table 7, 140 g ae/ha", "result": 100, "unit": "%"}, {"measurement": "GR50 MOOVA", "setting": "[5]; [7]", "result": "<4.38", "unit": "g ae/ha"}, {"measurement": "GR90 MOOVA", "setting": "[5]; [8]", "result": "<4.38", "unit": "g ae/ha"}, {"measurement": "Mean Visual Injury (%)-21 Days After Application ECHCG", "setting": "[6]; Table 7, 2.19 g ae/ha", "result": 0, "unit": "%"}, {"measurement": "Mean Visual Injury (%)-21 Days After Application ECHCG", "setting": "[6]; Table 7, 4.38 g ae/ha", "result": 3, "unit": "%"}, {"measurement": "Mean Visual Injury (%)-21 Days After Application ECHCG", "setting": "[6]; Table 7, 8.75 g ae/ha", "result": 6, "unit": "%"}, {"measurement": "Mean Visual Injury (%)-21 Days After Application ECHCG", "setting": "[6]; Table 7, 17.5 g ae/ha", "result": 57, "unit": "%"}, {"measurement": "Mean Visual Injury (%)-21 Days After Application ECHCG", "setting": "[6]; Table 7, 35 g ae/ha", "result": 86, "unit": "%"}, {"measurement": "Mean Visual Injury (%)-21 Days After Application ECHCG", "setting": "[6]; Table 7, 70 g ae/ha", "result": 99, "unit": "%"}, {"measurement": "Mean Visual Injury (%)-21 Days After Application ECHCG", "setting": "[6]; Table 7, 140 g ae/ha", "result": 100, "unit": "%"}, {"measurement": "GR50 ECHCG", "setting": "[6]; [7]", "result": 17.4, "unit": "g ae/ha"}, {"measurement": "GR90 ECHCG", "setting": "[6]; [8]", "result": 53.7, "unit": "g ae/ha"}]}
